{
  "source": "patent EP2653477B1",
  "about": "“SCORPION ACTIVE PEPTIDES AND PREPARATION METHODS AND APPLICATIONS THEREOF” (Wuhan More Biotechnology Co., Ltd., priority 2010, dated 2012)",
  "key": {"potassium channel Kv1.3": {"target": "T1, potassium channel Kv1.3 (Homo sapiens, UniProt P22001)", "T1 construct": "expressed in transfected cells; host or cells: COS-7 cells, selected with 0.8 mg/mL geneticin", "T1 sequence (P22001 whole entry)": "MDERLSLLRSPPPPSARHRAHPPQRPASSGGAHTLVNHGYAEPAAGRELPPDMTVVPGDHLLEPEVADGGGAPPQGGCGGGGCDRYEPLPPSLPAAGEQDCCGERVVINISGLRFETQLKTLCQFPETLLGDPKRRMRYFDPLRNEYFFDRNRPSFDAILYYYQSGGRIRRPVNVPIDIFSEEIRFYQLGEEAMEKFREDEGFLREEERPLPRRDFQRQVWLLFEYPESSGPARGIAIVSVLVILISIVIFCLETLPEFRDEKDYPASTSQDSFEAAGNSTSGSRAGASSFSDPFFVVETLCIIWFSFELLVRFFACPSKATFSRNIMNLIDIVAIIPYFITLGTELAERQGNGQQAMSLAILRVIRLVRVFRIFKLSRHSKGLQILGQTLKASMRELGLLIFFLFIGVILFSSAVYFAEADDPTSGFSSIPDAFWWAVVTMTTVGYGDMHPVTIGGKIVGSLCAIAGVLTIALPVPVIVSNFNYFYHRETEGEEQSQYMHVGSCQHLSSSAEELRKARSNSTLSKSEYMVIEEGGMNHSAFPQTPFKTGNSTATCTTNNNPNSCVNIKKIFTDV", "test": "whole-cell patch clamp, inhibition of Kv1.3 current in transfected COS-7 cells", "assay_type": "cell-based", "details": "potassium channel Kv1.3 in COS-7 cells, read-out: polypeptide concentrations that inhibit the current by half (IC50 value)", "description": "COS-7 cells were cultured in a DMEM medium containing 10% fetal calf serum, at 37° C, 5% CO2. The recombinant plasmids of potassium channel Kv1.3 were transfected by using a Sofast™ transfection kit, and the transfected cells were selectively cultured in a medium containing 0.8 mg/mL geneticin. The pharmacological activities of scorpion active polypeptides ADMR-011, ADMR-016, ADMR-019, ADMR-023 and ADMR-028 were tested and analyzed by using an instrument of whole-cell patch clamp (EPC-10 dual-channel patch clamp amplifier HEKA, Elektronik, Lambrecht, Germany). The setting of the experimental parameters, the collecting of data, and the applying of stimulus were all controlled by Pulse software (Elektronik, Lambrecht, Germany). The filter of the instrument was set to be 10 kHz (Bessel), and the electrode impedance was 2∼5 MΩ. After the formation of giga-seal (1∼5 GΩ) between the electrode and cell membrane, an automatic c-fast was performed, and the membrane was broken by slightly applying negative pressure, then an automatic c-slow was performed. At a holding potential of -70 mV, depolarizing pulses, incrementing in 10 mV steps, with a step width of 80 ms , were given to stimulate from -60 mV to +50 mV, and the condition of current was observed. The polypeptides ADMR-011, ADMR-016 and ADMR-019 were accurately perfused, which was achieved by MPS-2 (INBIO Inc, Wuhan, China) perfusing system. After dissolving the three scorpion active polypeptides, they were applied by spraying via DAD Drug Application System (ALA), and the tip of the tube for drug application was about 100 µm away from the cell being recorded.\nIt can be known from Figure 16 to Figure 20 that, the pharmacological activity of ADMR-011 on potassium channel Kvl.3 was 91 pM, the pharmacological activity of ADMR-016 on potassium channel Kvl.3 was 2.58 nM, the pharmacological activity of ADMR-019 on potassium channel Kv1.3 was 1.41 nM, and the pharmacological activity of ADMR-023 and ADMR-028 on potassium channel Kvl.3 were 0.49 nM and 0.65 nM, respectively. Therefore, they are polypeptides with potent activity that are currently found internationally."}, "Wistar rat EAE model": {"test_system": "Wistar rat EAE model", "test": "EAE (multiple sclerosis) model in Wistar rats induced by GPSCH-CFA, clinical scoring", "assay_type": "in vivo", "details": "100 µg·kg^-1 subcutaneously once every day, x±s, n=10, score 0-5", "text": "Experimental animals: female inbred line Wistar rats (6∼8 week old, body weigh 150±10 g) and guinea pigs (300∼400 g, purchased from Wuhan University Laboratory Animal Center) were selected.\nFormulating a mixed emulsion of whole spinal cord homogenate - Freund's complete adjuvant (GPSCH-CFA): a guinea pig was executed, and the spinal cord was rapidly removed, and prepared into 50% PBS homogenate by a ultrasonic disruptor (Sonics & Materials Inc, America), which was mixed with equal amount of Freund's complete adjuvant (BCG vaccine 10 mg/ml), and was pushed back and forth with syringes until forming a water-in-oil emulsion.\nWistar rat EAE model induced by EAE: GPSCH-CFA emulsion was injected intradermally into the foot pads of both the hind legs of Wistar rats, or simultaneously injected intradermally about 1×10^10 pertussis vaccine. The rats were weighed every day, and observed for their neurological symptoms. Experimental autoimmune encephalomyelitis appeared after the rats had been raised for 2 weeks.\nThe rats with experimental autoimmune encephalomyelitis (EAE) were divided into […] groups randomly: normal control group (negative control group), model control group (model rats + normal saline), administration group A (model rats + ADMR-011 polypeptide), administration group B (model rats + ADMR-016 polypeptide), administration group C (model rats + ADMR-019 polypeptide), administration group D (model rats + ADMR-023 polypeptide), and administration group E (model rats + ADMR-028 polypeptide), 10 rats for each group. For the administration groups, polypeptides ADMR-011, ADMR-016, ADMR-019, ADMR-023 and ADMR-028 were injected subcutaneously respectively at a dose of 100 µg·kg^-1, once every day in the morning. For the normal control group and the model control group, equivalent amount of normal saline was injected subcutaneously, and administered continuously. […] The highest clinical score for each animal was recorded, and the average value of them was taken to be the average clinical score.\nThe scoring criteria were: without any clinical symptom, 0 point; disappearance of tension in the tail, and observable mild awkward gait, 1 point; weakness in both the hind limbs, which can recover after passive body flipping, 2 points; paralysis in both the hind limbs, which can not recover after passive body flipping, 3 points; tetraplegia accompanied by incontinence of urine and feces, 4 points; moribund state or death, 5 points. Table 1. Scores for rats of various experimental groups in the EAE model (-x±s)"}, "rheumatoid arthritis": {"test_system": "rheumatoid arthritis", "test": "pristane-induced rheumatoid arthritis in SD rats, joint score and hind foot plantar swelling", "assay_type": "in vivo", "parameters": "key to Score of joint: clinical score 1-4: 1 joint red/swollen=1 ... severe whole-limb arthritis=4", "details": "x±s, n=10; for Score of joint: arthritis rats, polypeptides 100 µg·kg^-1 (methotrexate 1.75 µg·kg^-1) subcutaneously once every day, score 1-4; for The swelling degree after the inflammation: volume difference of hind foot before and after the modeling", "description": "[…] Female (♀) specific pathogen free (SPF) inbred line SD rats (Wuhan University Laboratory Animal Center), body weight 150±10 g, were selected, and pristane was injected intradermally at the base of the tail of rats in experimental groups at a dose of 0.2 ml/rat, after they were acclimatized in a clean-grade environment for 1 week. Rheumatoid arthritis appeared after the rats were raised for only 2 weeks.\nThe rats having arthritis were randomized into: normal control group (negative control group), model negative control group (model rat + normal saline), model positive control group (model rat + methotrexate), administration group A (model rat + ADMR-011 polypeptide), administration group B (model rat + ADMR-016 polypeptide), administration group C (model rat + ADMR-019 polypeptide), administration group D (model rat + ADMR-023 polypeptide), and administration group E (model rat + ADMR-028 polypeptide), 10 rats for each group. The administration groups were injected subcutaneously at a dose of 100 µg·kg^-1, once every day in the morning, and administered continuously; the normal control group and the model negative control group were injected subcutaneously with equivalent amount of normal saline; and the model positive control group were injected subcutaneously with methotrexate (MTX) at a dose of 1.75 µg·kg^-1, once every day, and administered continuously.\nThe highest clinical score for each animal was recorded, and the average value of them was taken to be the average clinical score. The scoring criteria were: one joint of a rat was red and swollen, 1 point; two joints of a rat were red and swollen, 2 points; all the joints of a rat were red and swollen, 3 points; severe arthritis in the entire limb of a rat, 4 points. Table 2. Arthritis scores for rats of various experimental groups (-x±s)\nFrom day 8 of the experiment, the hind foot plantar volume of the rat was measured and recorded every other day for 21 consecutive days, and the swelling degree (mL) was calculated according to the volume difference before and after the modeling. Table 3. The swelling degree of rats in various experimental groups (-x±s)"}, "Kunming mice": {"test_system": "Kunming mice", "test": "toxicity study in mice, single intraperitoneal injection, 7 days observation", "assay_type": "in vivo", "details": "10 mg/kg intraperitoneally once (100 times the dose for animal model), observed 7 days", "description": "18∼20 g Kunming mice were selected, and divided into 4 groups, 8 male mice and 8 female mice for each group. The lyophilized powders of scorpion active polypeptides ADMR-011, ADMR-016, ADMR-019, ADMR-023 and ADMR-028 were dissolved with normal saline respectively, and the 3 groups of mice were injected intraperitoneally once respectively with polypeptide solution at a dose of 10 mg/kg (100 times of the dose for animal model), and the fourth group were injected with equivalent amount of normal saline as control.\nAfter the administration, the respiration, motor and heartbeat in animals of all the groups were all normal, without significant abnormal reaction. 7 days after the administration, all the animals were conducted gross anatomy to observe the volume, color and texture of the main organs (heart, liver, spleen, lung, and kidney), and there was no macroscopic lesion. There were no significant difference between the 3 administration groups and the normal saline group."}},
  "note": "Bridge positions count the residues as written; N and C are the ends. Peptide text beside a SMILES is read from it.",
  "data": [
    {"compound": "CC[C@H](C)[C@H](NC(=O)CNC(=O)[C@@H](N)C(C)C)C(=O)N[C@@H](CC(N)=O)C(=O)N[C@H](C(=O)N[C@@H](CCC(N)=O)C(=O)N[C@H]1CSSC[C@@H]2NC(=O)[C@H](CCC(N)=O)NC(=O)CNC(=O)[C@H](Cc3ccccc3)NC(=O)[C@H](CCCNC(=N)N)NC(=O)[C@H](CCSC)NC(=O)CNC(=O)[C@H](C)NC(=O)[C@H](CC(=O)O)NC(=O)[C@H](CCCCN)NC(=O)[C@@H]3CSSC[C@@H](C(=O)N[C@H](C(=O)N4CCC[C@H]4C(=O)N[C@@H](CCCCN)C(=O)O)[C@@H](C)O)NC(=O)[C@H](CC(=O)O)NC(=O)[C@H](CSSC[C@H](NC(=O)[C@H](CCC(N)=O)NC(=O)[C@H](CCCNC(=N)N)NC(=O)[C@H](CO)NC(=O)[C@H](Cc4c[nH]cn4)NC(=O)[C@H](CC(N)=O)NC1=O)C(=O)N[C@@H](CC(C)C)C(=O)N[C@@H](CCCCN)C(=O)N1CCC[C@H]1C(=O)N3)NC(=O)[C@H]([C@@H](C)O)NC(=O)CNC(=O)[C@H](CC(N)=O)NC(=O)[C@H]([C@@H](C)CC)NC2=O)C(C)C", "note": "[ADMR-028] (H-VGINVQCNHSRQCLKPCKDAGMRFGQCINGTCDCTPK-OH; disulfide 7-27, 13-32, 17-34 (inferred); N-terminus and C-terminus assumed)", "values": [
      {"measurement": "IC50", "setting": "potassium channel Kv1.3", "result": 0.65, "unit": "nM"},
      {"measurement": "Average clinical scores", "setting": "Wistar rat EAE model; 8 d", "result": "0.49±0.12"},
      {"measurement": "Average clinical scores", "setting": "Wistar rat EAE model; 10 d", "result": "0.95±0.22"},
      {"measurement": "Average clinical scores", "setting": "Wistar rat EAE model; 12 d", "result": "1.09±0.37"},
      {"measurement": "Average clinical scores", "setting": "Wistar rat EAE model; 14 d", "result": "1.13±0.29"},
      {"measurement": "Score of joint", "setting": "rheumatoid arthritis; 10 d", "result": "1.79±0.55"},
      {"measurement": "Score of joint", "setting": "rheumatoid arthritis; 15 d", "result": "2.11±0.45"},
      {"measurement": "Score of joint", "setting": "rheumatoid arthritis; 21 d", "result": "1.79±0.63"},
      {"measurement": "The swelling degree after the inflammation", "setting": "rheumatoid arthritis; d8", "result": "0.037 ± 0.013", "unit": "mL"},
      {"measurement": "The swelling degree after the inflammation", "setting": "rheumatoid arthritis; d15", "result": "0.28 ± 0.05", "unit": "mL"},
      {"measurement": "The swelling degree after the inflammation", "setting": "rheumatoid arthritis; d22", "result": "0.38 ± 0.13", "unit": "mL"},
      {"measurement": "The swelling degree after the inflammation", "setting": "rheumatoid arthritis; d28", "result": "0.31 ± 0.14", "unit": "mL"},
      {"measurement": "toxicity in mice", "setting": "Kunming mice", "result": "no significant toxicity"}
    ]}
  ]
}
